Patent US8153693B2, “Compounds for the selective treatment of the intestinal immuno-inflammatory component of the celiac disease” (Giuliani International Limited, priority 2007, dated 2012)

Test system: IFN
Experiment: Cytokine assay (ELISA) in culture liquids of duodenal biopsy organ cultures, 5-ASA 1.5-8.0 mg per ml, 4 h to 72 h: IFN
Format: cell-based, human
Settings: for IFN, PT + 5ASA C, Mean / IFN, PT + 5ASA C, Median: peptic-tryptic digest of gliadin (PT)
Method: 3 groups of subjects were evaluated. The first (atrophic) group included 29 subjects with serum tests positive to antiendomysium and anti-transglutaminase antibodies, with a neo-diagnosis of celiac disease and gluten-containing diet. The second (Remission) group included 17 celiac disease subjects in clinical remission and gluten-free diet for at least 6 months. The third (Healthy) group included subjects not suffering from the celiac disease but suffering from inflammation of the gastro-enteric tract. […] The biopsies were washed in saline for two minutes at least three times. […] Three different amounts of medium are shared for the ELISA assay of Th1 and Th2 cytokines released in culture media.

[1] = Atrophic population, N 22, Wilcoxon p = 0.05
[2] = Atrophic population, N 22, Wilcoxon p = 0.08
[3] = Positive control population, N 7
[4] = Positive control population, N 7, Wilcoxon p = N.S.
[5] = Remission population, N 15, Wilcoxon p = 0.022
[6] = Remission population, N 15, Wilcoxon p = N.S.

Nc1ccc(O)c(C(=O)O)c1 [Compound 5ASA, mesalazine]
IFN, Difference PT C/PT + 5ASA C, Mean [1]: 0.0657
IFN, Difference PT C/PT + 5ASA C, Median [1]: 0.0505
IFN, Difference Medium C/Medium + 5ASA C, Mean [2]: 0.0601
IFN, Difference Medium C/Medium + 5ASA C, Median [2]: 0.0260
IFN, PT + 5ASA C, Mean (Atrophic population, N 22): 0.145
IFN, PT + 5ASA C, Median (Atrophic population, N 22): 0.0545
IFN, Medium + 5ASA C, Mean [3]: 0.149
IFN, Medium + 5ASA C, Median [3]: 0.140
IFN, Difference Medium C/Medium + 5ASA C, Mean [4]: 0.004
IFN, Difference Medium C/Medium + 5ASA C, Median [4]: 0.029
IFN, Difference PT C/PT + 5ASA C, Mean [4]: 0.0247
IFN, Difference PT C/PT + 5ASA C, Median [4]: 0.0090
IFN, PT + 5ASA C, Mean [3]: 0.116
IFN, PT + 5ASA C, Median [3]: 0.121
IFN, Medium + 5ASA C, Mean (Remission population, N 15): 0.201
IFN, Medium + 5ASA C, Median (Remission population, N 15): 0.208
IFN, Difference PT C/PT + 5ASA C, Mean [5]: 0.101
IFN, Difference PT C/PT + 5ASA C, Median [5]: 0.0210
IFN, Difference Medium C/Medium + 5ASA C, Mean [6]: 0.0383
IFN, Difference Medium C/Medium + 5ASA C, Median [6]: 0.0500
IFN, PT + 5ASA C, Mean (Remission population, N 15): 0.153
IFN, PT + 5ASA C, Median (Remission population, N 15): 0.0960
